Laboratory results from ChEMBL document CHEMBL4266023, “NMR-Based Investigation of Hydrogen Bonding in a Dihydroanthracen-1(4 H)one from Rubia philippinensis and Its Soluble Epoxide Hydrolase Inhibitory Potential” (J Nat Prod, 2018).

Biological target: T1, Bifunctional epoxide hydrolase 2 (Homo sapiens, UniProt P34913)
T1 sequence (P34913 whole entry): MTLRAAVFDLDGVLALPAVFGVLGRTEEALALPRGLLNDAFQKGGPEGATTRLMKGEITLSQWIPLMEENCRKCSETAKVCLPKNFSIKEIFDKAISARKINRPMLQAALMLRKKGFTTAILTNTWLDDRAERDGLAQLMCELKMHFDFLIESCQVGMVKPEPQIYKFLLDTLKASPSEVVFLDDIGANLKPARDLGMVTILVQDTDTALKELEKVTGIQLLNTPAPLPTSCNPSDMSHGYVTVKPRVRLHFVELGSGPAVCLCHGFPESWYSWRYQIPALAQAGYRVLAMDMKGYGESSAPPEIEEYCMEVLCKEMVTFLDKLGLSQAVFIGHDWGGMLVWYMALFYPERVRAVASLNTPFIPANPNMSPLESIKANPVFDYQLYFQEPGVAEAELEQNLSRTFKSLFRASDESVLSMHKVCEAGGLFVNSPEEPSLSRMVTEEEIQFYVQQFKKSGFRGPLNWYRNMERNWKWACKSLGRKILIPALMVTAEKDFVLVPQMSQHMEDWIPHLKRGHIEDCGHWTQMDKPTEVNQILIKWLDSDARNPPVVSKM
Test: Inhibition of soluble epoxide hydrolase (unknown origin) using NEPC as substrate after 1 hr by fluorescence assay

Row | SMILES | IC50 [nM]
1 | Cc1ccc2c(O[C@@H]3O[C@H](CO)[C@@H](O)[C@H](O)[C@H]3O)c3ccccc3c(O[C@@H]3O[C@H](CO)[C@@H](O)[C@H](O)[C@H]3O)c2c1 | 300
2 | CC1=CC[C@@H]2C(=C(O)c3ccccc3[C@@H]2O)C1=O | 1100
